In patent publication US20240300934A1, “COMPOUNDS FOR MODULATING MYCOBACTERIUM TUBERCULOSIS RESPONSE” (priority 2021, published 2024):

Columns and labels:
Mtb = test: C3HeB/FeJ murine Mtb infection model; format: in vivo, C3HeB/FeJ mice
Description: C3HeB/FeJ wild type mice (Jackson Laboratories) were infected intranasally with 10^3 CFUs of Mtb (35 μl), under light anesthesia with 2% isoflurane (MacGilvary et al, 2019; Sukumar et al, 2014; Tan et al, 2013). […] The next day the suspension was homogenized by bead beating with 5 mm steel beads in a TOMY microtube mixer (2×20 s), and stored at 4° C. until use. […] Administration began at two or six weeks post-infection as indicated. At time of sacrifice, the left lobe and accessory right lobe of the lung were homogenized in PBS+0.05% Tween 80 and serial dilutions plated on 7H10 agar plates with 100 μg/ml cycloheximide for bacterial load determination. The remaining three right lobes were fixed in 4% PFA in PBS. One lobe was used for histological analysis by standard hematoxylin and eosin (H&E) staining (Tufts Comparative Pathology Services). A Nikon Eclipse E400 with a SPOT insight color digital camera was used to image the histology samples.

human CYP 450 2D6 = human CYP 450 2D6 (Homo sapiens, UniProt P10635); test: Human cytochrome P450 inhibition, 2D6; format: in vitro ADME; conditions: 10 μM
Sequence of human CYP 450 2D6 (P10635 whole entry): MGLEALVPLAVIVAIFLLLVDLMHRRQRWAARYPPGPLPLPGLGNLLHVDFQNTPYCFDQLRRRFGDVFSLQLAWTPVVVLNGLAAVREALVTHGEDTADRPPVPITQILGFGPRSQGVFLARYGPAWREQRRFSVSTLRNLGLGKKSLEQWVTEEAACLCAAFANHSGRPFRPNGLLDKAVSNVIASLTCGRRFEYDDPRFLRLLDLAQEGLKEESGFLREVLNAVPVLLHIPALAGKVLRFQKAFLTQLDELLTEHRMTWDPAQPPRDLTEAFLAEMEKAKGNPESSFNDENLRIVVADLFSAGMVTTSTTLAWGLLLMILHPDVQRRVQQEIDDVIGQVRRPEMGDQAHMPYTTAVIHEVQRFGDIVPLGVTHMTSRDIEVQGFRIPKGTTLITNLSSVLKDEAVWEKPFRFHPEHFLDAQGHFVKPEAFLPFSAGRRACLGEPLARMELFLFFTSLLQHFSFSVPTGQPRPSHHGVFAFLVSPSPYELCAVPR

Mouse plasma stability = format: in vitro ADME; conditions: after 5 h incubation
Description: (§1) Assays examining mouse and human liver microsomal stability, kinetic aqueous solubility, mouse and human plasma protein binding and stability, and human cytochrome P450 inhibition characteristics of the compounds were run by BioDuro, Incorporated, using standard protocols as previously described (Wang et al, 2020). hERG inhibition assays were also performed by BioDuro, Incorporated.

human CYP 450 2C9 = human CYP 450 2C9 (Homo sapiens, UniProt P11712); test: Human cytochrome P450 inhibition, 2C9; format: in vitro ADME; conditions: 10 μM
Sequence of human CYP 450 2C9 (P11712 whole entry): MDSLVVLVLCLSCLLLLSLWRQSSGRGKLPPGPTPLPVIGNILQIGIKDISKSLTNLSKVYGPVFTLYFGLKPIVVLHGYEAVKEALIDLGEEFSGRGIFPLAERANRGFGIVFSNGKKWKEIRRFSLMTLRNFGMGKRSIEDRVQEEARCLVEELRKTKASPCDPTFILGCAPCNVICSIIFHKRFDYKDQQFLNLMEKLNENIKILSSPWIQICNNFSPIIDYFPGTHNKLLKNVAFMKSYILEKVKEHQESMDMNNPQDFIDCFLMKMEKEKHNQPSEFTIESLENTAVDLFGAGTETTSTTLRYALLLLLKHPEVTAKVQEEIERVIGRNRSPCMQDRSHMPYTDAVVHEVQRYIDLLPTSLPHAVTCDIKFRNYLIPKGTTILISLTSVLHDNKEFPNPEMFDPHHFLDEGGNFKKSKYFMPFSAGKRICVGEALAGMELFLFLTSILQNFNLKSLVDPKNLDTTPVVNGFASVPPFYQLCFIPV

[1] = Human plasma protein binding; format: in vitro ADME
Description: as §1

[2] = 250 mg/kg oral gavage 5 times a week for 2 weeks, started 2 weeks post-infection
[3] = 250 mg/kg oral gavage for two or four weeks, started 6 weeks post-infection

In the case of `CCSc1ncc(CN2CCN(c3nc4ccccc4o3)CC2)cn1` [Compound C6, 2-(4-((2-(ethylthio)pyrimidin-5-yl)methyl)piperazin-1-yl)benzo[d]oxazole], the “Mtb growth in lungs (CFU), short-term infection” value (Mtb; [2]) is reported as “significantly inhibited Mtb growth in the mice lungs”, the “lung histology, short-term infection” value (Mtb; [2]) is reported as “less cellular infiltration” and the “lung bacterial load, longer-term infection” value (Mtb; [3]) is reported as “significant decrease in bacterial load”. For the same molecule, the “lung histopathology, longer-term infection” value (Mtb; [3]) was “improved histopathology”, the “% inhibition of CYP 2D6” value (human CYP 450 2D6) was 10.5% and the “stability in mouse plasma, % remaining” value (Mouse plasma stability) was over 99.9%. For the same molecule, the “% inhibition of CYP 2C9” value (human CYP 450 2C9) was 25.7% and the “protein binding to human plasma” value [1] was 99.2%.
